Here are results for one compound from ChEMBL document CHEMBL1140062, “Inactivation of NF-kappaB components by covalent binding of (-)-dehydroxymethylepoxyquinomicin to specific cysteine residues” (J Med Chem, 2008).

Data set [1] concerns the target T1, Nuclear factor NF-kappa-B p100 subunit (Homo sapiens) (UniProt Q00653).
T1 sequence (whole entry): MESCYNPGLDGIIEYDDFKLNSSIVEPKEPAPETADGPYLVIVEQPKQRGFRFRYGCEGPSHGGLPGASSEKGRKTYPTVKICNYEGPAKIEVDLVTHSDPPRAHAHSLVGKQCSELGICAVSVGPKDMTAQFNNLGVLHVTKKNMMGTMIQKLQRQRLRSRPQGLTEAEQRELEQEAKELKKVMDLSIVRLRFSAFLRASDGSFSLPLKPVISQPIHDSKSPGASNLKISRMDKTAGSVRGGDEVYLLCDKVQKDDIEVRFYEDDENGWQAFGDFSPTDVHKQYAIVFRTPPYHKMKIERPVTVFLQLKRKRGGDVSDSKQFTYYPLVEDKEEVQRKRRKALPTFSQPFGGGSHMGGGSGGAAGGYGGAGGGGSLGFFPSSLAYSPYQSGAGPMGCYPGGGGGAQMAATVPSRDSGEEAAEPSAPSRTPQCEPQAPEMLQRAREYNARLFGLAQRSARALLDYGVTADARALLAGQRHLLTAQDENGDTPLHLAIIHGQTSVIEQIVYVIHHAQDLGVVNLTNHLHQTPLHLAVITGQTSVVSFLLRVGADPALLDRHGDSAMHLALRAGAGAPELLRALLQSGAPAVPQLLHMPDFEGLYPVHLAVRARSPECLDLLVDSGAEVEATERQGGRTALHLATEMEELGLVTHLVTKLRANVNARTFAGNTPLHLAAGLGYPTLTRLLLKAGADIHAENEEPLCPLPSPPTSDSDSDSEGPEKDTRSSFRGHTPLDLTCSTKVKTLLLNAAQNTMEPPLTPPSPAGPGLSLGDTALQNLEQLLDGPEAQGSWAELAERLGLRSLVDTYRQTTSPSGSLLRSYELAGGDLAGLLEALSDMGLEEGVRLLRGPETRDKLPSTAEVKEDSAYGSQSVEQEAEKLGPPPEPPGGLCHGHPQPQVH
As to the kind of experiment: Inhibition of DNA binding activity of NF-kappaB p52.

In data set [2] the target is T2, Nuclear factor NF-kappa-B p105 subunit (Homo sapiens) (UniProt P19838).
T2 sequence (whole entry): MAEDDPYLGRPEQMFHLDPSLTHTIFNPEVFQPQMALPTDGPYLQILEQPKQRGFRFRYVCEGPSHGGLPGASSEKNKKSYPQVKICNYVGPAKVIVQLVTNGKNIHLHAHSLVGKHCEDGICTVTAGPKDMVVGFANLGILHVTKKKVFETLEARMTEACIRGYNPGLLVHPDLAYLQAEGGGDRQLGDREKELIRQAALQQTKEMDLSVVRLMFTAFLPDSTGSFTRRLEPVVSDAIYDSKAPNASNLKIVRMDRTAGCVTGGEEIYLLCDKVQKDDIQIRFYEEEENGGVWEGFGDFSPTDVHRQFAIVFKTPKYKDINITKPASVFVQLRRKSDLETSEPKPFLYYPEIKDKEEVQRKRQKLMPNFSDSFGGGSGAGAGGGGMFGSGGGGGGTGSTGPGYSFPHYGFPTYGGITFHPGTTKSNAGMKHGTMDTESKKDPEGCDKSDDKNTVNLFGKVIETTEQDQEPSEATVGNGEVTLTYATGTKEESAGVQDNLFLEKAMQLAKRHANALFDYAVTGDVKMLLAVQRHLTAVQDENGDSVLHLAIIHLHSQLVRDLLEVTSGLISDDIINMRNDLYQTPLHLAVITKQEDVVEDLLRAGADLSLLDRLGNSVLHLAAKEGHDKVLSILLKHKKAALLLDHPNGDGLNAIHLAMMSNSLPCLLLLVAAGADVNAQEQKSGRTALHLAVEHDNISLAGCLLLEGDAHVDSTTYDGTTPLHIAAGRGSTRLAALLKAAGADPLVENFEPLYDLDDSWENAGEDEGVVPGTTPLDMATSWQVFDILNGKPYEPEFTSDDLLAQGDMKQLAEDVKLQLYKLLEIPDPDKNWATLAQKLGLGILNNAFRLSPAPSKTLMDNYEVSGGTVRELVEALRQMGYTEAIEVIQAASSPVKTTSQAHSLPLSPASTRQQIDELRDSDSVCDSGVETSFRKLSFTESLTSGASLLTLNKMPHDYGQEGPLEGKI
As to the kind of experiment: Inhibition of DNA binding activity of wild type NF-kappaB p50 by MALDI-TOF MS analysis.

The test system of data set [3] is T3, Proto-oncogene c-Rel (Homo sapiens), Q04864 [C27S].
T3 sequence (whole entry): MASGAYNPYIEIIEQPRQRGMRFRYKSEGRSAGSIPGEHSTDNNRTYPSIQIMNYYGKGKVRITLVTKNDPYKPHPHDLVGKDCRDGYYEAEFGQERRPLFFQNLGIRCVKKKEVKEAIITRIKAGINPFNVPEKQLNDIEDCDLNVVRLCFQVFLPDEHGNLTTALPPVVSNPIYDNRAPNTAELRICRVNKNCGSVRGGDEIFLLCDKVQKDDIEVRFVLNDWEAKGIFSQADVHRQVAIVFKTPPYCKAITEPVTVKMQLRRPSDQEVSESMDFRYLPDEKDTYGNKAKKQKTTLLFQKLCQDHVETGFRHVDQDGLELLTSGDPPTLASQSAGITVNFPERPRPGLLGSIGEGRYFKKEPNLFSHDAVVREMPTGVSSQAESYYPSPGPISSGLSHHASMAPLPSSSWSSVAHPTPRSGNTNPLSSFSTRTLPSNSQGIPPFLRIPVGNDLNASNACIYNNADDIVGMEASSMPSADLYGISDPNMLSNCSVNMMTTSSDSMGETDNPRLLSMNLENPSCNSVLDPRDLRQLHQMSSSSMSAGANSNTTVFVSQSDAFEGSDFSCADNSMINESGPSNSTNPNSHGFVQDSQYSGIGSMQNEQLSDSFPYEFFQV
As to the kind of experiment: Inhibition of DNA binding activity of NF-kappaB cRel (1-307) C27S mutant.

Data set [4] relates to HeLa. As to the kind of experiment: Decrease of TNF-alpha-stimulated endogenous NF-kappaB p65 level in human HeLa cell nucleus at 10 ug/mL by Western blot analysis. The class given is functional, cell-based. (Immunoblotting shows a protein as a band on a membrane.)
In data set [5] the test system is Transcription factor p65 (Homo sapiens), Q04206 [C38S]. As to the kind of experiment: Inhibition of TNF-alpha-stimulated DNA binding activity of NF-kappaB p65 C38S mutant expressed in HeLa cells at 10 ug/mL hrs by EMSA. The class given is cell-based.
Transcription factor p65 (Homo sapiens), Q04206 [C38S], sequence (Q04206 whole entry C38S): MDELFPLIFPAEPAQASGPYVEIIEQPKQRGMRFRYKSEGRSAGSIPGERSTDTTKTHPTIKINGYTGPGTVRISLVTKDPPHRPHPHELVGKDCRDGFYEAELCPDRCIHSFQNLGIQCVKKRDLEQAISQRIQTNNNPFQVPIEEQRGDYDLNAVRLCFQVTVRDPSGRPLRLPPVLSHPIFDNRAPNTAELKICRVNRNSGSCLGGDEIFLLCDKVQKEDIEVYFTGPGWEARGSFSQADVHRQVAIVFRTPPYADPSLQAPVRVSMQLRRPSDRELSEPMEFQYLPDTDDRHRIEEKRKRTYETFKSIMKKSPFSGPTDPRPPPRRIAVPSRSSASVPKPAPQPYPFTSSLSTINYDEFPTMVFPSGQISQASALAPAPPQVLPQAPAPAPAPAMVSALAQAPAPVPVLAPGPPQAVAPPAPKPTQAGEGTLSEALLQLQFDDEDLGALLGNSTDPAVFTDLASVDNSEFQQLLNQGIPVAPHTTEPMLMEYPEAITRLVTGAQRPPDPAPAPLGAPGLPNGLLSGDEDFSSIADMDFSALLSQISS
Data set [6] is described as follows: Binding affinity to NF-kappaB p65 (1-325) Rel subunit at 100 uM by surface plasmon resonance analysis. (Surface plasmon resonance follows binding to a sensor surface in real time, without labels.)
For data set [7], the system named is Transcription factor p65 (Homo sapiens), Q04206 [C38S]. As to the kind of experiment: Inhibition of DNA binding activity of full-length recombinant NF-kappaB p65 Rel subunit C38S mutant at 10 uM by EMSA. On the technique in general: Mobility shift assays separate free from complexed probe on a gel.
Data set [8] shares this test system. As to the kind of experiment: Inhibition of DNA binding activity of NF-kappaB p65 (1-325) C38S mutant by EMSA.
Data set [9] in a line: Inhibition of DNA binding activity of NF-kappaB p50 C62S mutant.
For data set [10], the system named is Transcription factor p65 (Homo sapiens), Q04206 [C120S]. As to the kind of experiment: Inhibition of DNA binding activity of NF-kappaB p65 (1-325) C120S mutant by EMSA.
Transcription factor p65 (Homo sapiens), Q04206 [C120S], sequence (Q04206 whole entry C120S): as the sequence (Q04206 whole entry C38S) above, with S38C, C120S counted along it
The target of data set [11] is Transcription factor p65 (Homo sapiens) (UniProt Q04206). As to the kind of experiment: Inhibition of DNA binding activity of full-length recombinant NF-kappaB p65 Rel subunit at 10 uM by EMSA.
Transcription factor p65 (Homo sapiens), sequence (Q04206 whole entry): as the sequence (Q04206 whole entry C38S) above, with S38C counted along it
Data set [12] relates to HeLa. As to the kind of experiment: Decrease of TNF-alpha-stimulated wild type NF-kappaB p65 level in human HeLa cell nucleus at 10 ug/mL by Western blot analysis. Format: functional, cell-based.
For data set [13], the system named is Transcription factor p65 (Homo sapiens), Q04206 [C120S]. As to the kind of experiment: Inhibition of DNA binding activity of NF-kappaB p65 (1-325) C120S mutant by MALDI-TOF MS analysis.
For data set [14], the target named is Albumin (Bos taurus, UniProt P02769). As to the kind of experiment: Binding affinity to bovine serum albumin. To be noted: cattle, isolated protein. The class given is ADME.
Albumin, sequence (P02769 whole entry): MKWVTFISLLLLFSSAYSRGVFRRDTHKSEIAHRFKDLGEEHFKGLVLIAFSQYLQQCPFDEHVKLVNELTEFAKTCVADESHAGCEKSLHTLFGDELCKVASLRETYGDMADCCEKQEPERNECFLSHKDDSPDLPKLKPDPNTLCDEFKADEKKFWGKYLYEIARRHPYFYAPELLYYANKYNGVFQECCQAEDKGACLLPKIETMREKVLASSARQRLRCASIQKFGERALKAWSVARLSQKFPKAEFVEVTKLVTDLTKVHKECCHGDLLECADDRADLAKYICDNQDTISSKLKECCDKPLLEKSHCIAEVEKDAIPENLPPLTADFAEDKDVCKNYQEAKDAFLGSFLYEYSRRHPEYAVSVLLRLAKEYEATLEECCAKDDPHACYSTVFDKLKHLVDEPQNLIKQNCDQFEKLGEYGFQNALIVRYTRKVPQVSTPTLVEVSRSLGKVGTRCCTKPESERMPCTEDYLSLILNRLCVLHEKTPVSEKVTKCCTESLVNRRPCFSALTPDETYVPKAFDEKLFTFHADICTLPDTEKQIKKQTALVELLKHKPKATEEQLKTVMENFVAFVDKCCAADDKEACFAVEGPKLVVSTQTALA
Data set [15] can be described thus: Inhibition of DNA binding activity of NF-kappaB p65 (1-325) Rel subunit at 20 uM by EMSA.
In data set [16] the target is Transcription factor p65 (Homo sapiens) (UniProt Q04206). As to the kind of experiment: Inhibition of TNF-alpha-stimulated DNA binding activity of wild type NF-kappaB p65 expressed in HeLa cells at 10 ug/mL by EMSA. Format: cell-based.
For data set [17], the target named is T2, Nuclear factor NF-kappa-B p105 subunit (Homo sapiens). As to the kind of experiment: Inhibition of DNA binding activity of wild type NF-kappaB p50.
The nature of data set [18]: Inhibition of DNA binding activity of wild type NF-kappaB cRel (1-307).
For data set [19], the system named is HeLa. As to the kind of experiment: Decrease of TNF-alpha-stimulated NF-kappaB p65 C38S mutant level in human HeLa cell nucleus at 10 ug/mL by Western blot analysis. Format: functional, cell-based.
For data set [20], the system named is Transcription factor p65 (Homo sapiens), Q04206 [C38S]. As to the kind of experiment: Inhibition of DNA binding activity of NF-kappaB p65 (1-325) C38S mutant by MALDI-TOF MS analysis.
For data set [21], the system named is T3, Proto-oncogene c-Rel (Homo sapiens), Q04864 [C27S]. As to the kind of experiment: Inhibition of DNA binding activity of NF-kappaB cRel (1-307) C27S mutant by MALDI-TOF MS analysis.
Data set [22] can be described thus: Inhibition of DNA binding activity of NF-kappaB p50 C144S mutant by MALDI-TOF MS analysis.
The nature of data set [23]: Inhibition of DNA binding activity of wild type NF-kappaB cRel (1-307) by MALDI-TOF MS analysis.
Data set [24] is described as follows: Inhibition of DNA binding activity of NF-kappaB p50 C62S mutant by MALDI-TOF MS analysis.

The source made the active and inactive calls. The calls are words filed in the database; no cut-off is given here.

Consider `O=C(NC1=CC(=O)[C@H]2O[C@H]2[C@H]1O)c1ccccc1O` [DEHYDROXYMETHYLEPOXYQUINOMICIN], for which the result in [1], in data set [3], in [5], in data set [7], in [8] and in [9] was inactive. For the same compound, the result in data set [11], in data set [19], in data set [20], in [21], in data set [22] and in [24] was inactive. The outcome in [2], in data set [4], in data set [6], in data set [10], in data set [12] and in [13] was Active. Moreover, the outcome in data set [15], in [16], in data set [17], in data set [18] and in data set [23] was Active. In addition, the Activity entry in data set [14] was “Not Active”.
